Data on 7 compounds can be found in patent publication US8076487B2, “Pyridone derivative and herbicide” (Kumiai Chemical Industry Co., Ltd., priority 2006, dated 2011).

Common to all, as to type: in vivo
In test [1] the test system is Japanese bulrush (Scirpus juncoides Roxb.). The test is described as follows: Test Example 1: herbicidal effect by soil application to paddy field. To be noted: paddy field soil application; active ingredient 1,000 g per 1 hectare; wettable powder added dropwise to water surface the day after sowing; examined on the 21st day after application. The method, boiled down:
(§1)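 Under greenhouse conditions, seeds sown on puddled paddy soil in 100 cm2 pots under 3 cm of standing water received the test compound; injury was assessed with a standard scoring scheme three weeks (day 21) after treatment.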

The subject of test [2] is early watergrass (Echinochloa oryzicola Vasing). Described as above. To be noted: paddy field soil application; active ingredient 1,000 g per 1 hectare; wettable powder added dropwise to water surface the day after sowing; examined on the 21st day after application. The method, boiled down: as §1
For test [3], the system named is heartshape false pickerelweed (Monochoria vaginalis (Burm.f.) C.Presl). Described as above. The following applies: paddy field soil application; active ingredient 1,000 g per 1 hectare; wettable powder added dropwise to water surface the day after sowing; examined on the 21st day after application. The method, boiled down:
as §1

Test [4] relates to barnyardgrass (Echinochloa crus-galli (L.) P. Beauv. var. crus-galli). Briefly: Test Example 2: herbicidal effect by soil application to upland field. To be noted: soil surface spray, upland field soil, 1,000 g active ingredient per hectare, 21st day after application. The method, boiled down:
(§2)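 Pre-emergence soil test: seeds sown in pots of field soil, then wettable-powder formulation sprayed on soil surface at 1,000 g active ingredient per hectare in 1,000 L water per hectare. Plants grown in greenhouse; herbicidal effect scored on a standard scale at day 21.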

Test [5] has as its system green foxtail (Setaria viridis (L.) P. Beauv.). The description is as above. To be noted: soil surface spray, upland field soil, 1,000 g active ingredient per hectare, 21st day after application. The method, boiled down: as §2
Test [6] deals with slender amaranth (Amaranthus viridis L.). The description is as above. The following applies: soil surface spray, upland field soil, 1,000 g active ingredient per hectare, 21st day after application. Put shortly:
as §2

Test [7] has as its system velvetleaf (Abutilon theophrasti medicus). The test is described as above. The following applies: soil surface spray, upland field soil, 1,000 g active ingredient per hectare, 21st day after application. Put shortly: as §2
Test [8] relates to barnyardgrass (Echinochloa crus-galli (L.) P. Beauv. var. crus-galli). The test is described as follows: Test Example 3: herbicidal effect by application to upland field (foliage treatment). The following applies: foliage treatment, plants grown two weeks, 1,000 g active ingredient per hectare, 14th day after application. The method, boiled down:
(§3)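 Two weeks after sowing in field soil under greenhouse conditions, seedlings receive a top-down foliar spray of wettable powder diluted in water at an active-ingredient rate of 1,000 g per hectare. Effect is rated against a standard 14 days post-treatment.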

Test [9] concerns green foxtail (Setaria viridis (L.) P. Beauv.). Described as above. The following applies: foliage treatment, plants grown two weeks, 1,000 g active ingredient per hectare, 14th day after application. Put shortly:
as §3

Test [10] relates to slender amaranth (Amaranthus viridis L.). Described as above. To be noted: foliage treatment, plants grown two weeks, 1,000 g active ingredient per hectare, 14th day after application. Put shortly:
as §3

The test system of test [11] is velvetleaf (Abutilon theophrasti medicus). The test is described as above. To be noted: foliage treatment, plants grown two weeks, 1,000 g active ingredient per hectare, 14th day after application. Put shortly: as §3

For the compound `Cn1c(C(F)(F)F)ccc(C(=O)C2=C(O)CCCC2=O)c1=O` [I-1, 2-[1,2-dihydro-1-methyl-2-oxo-6-(trifluoromethyl)-pyridine-3-carbonyl]-3-hydroxy-2-cyclohexen-1-one], the “herbicidal effect, Scirpus juncoides Roxb.” value in test [1] is 5 (90% or more of herbicidal effect and crop phytotoxicity). In test [2], the “herbicidal effect, Echinochloa oryzicola Vasing” value is 5 (90% or more of herbicidal effect and crop phytotoxicity). In addition, the “herbicidal effect, Monochoria vaginalis (Burm. f.) C. Presl” value (from here on “herbicidal effect, Monochoria vaginalis”) in test [3] is 5 (90% or more of herbicidal effect and crop phytotoxicity). In addition, the “herbicidal effect (index), Barnyardgrass” value in [4] is 5 (90% or more of herbicidal effect and crop phytotoxicity); in test [8], 4 (70 to less than 90% of herbicidal effect and crop phytotoxicity). For the same compound, the “herbicidal effect (index), Green Foxtail” value in [5] was 4 (70 to less than 90% of herbicidal effect and crop phytotoxicity); in test [9] it was 3 (50 to less than 70% of herbicidal effect and crop phytotoxicity). Moreover, the “herbicidal effect (index), Slender Amaranth” value was 5 (90% or more of herbicidal effect and crop phytotoxicity) in test [6]; 5 (90% or more of herbicidal effect and crop phytotoxicity) in test [10]. For the same compound, the “herbicidal effect (index), Velvetleaf” value in [7] was 5 (90% or more of herbicidal effect and crop phytotoxicity); in [11], 5 (90% or more of herbicidal effect and crop phytotoxicity).
In the case of `CCCn1c(C(F)(F)F)ccc(C(=O)C2=C(O)CCCC2=O)c1=O` [I-3], the “herbicidal effect, Scirpus juncoides Roxb.” value in [1] was 5 (90% or more of herbicidal effect and crop phytotoxicity). Also, the “herbicidal effect, Echinochloa oryzicola Vasing” value in test [2] is 5 (90% or more of herbicidal effect and crop phytotoxicity). Besides, the “herbicidal effect, Monochoria vaginalis” value in test [3] was 5 (90% or more of herbicidal effect and crop phytotoxicity). Also, the “herbicidal effect (index), Barnyardgrass” value in [4] was 5 (90% or more of herbicidal effect and crop phytotoxicity); in test [8], 5 (90% or more of herbicidal effect and crop phytotoxicity). The “herbicidal effect (index), Green Foxtail” value was 5 (90% or more of herbicidal effect and crop phytotoxicity) in test [5]; 5 (90% or more of herbicidal effect and crop phytotoxicity) in test [9]. Further, the “herbicidal effect (index), Slender Amaranth” value is 5 (90% or more of herbicidal effect and crop phytotoxicity) in test [6]; 5 (90% or more of herbicidal effect and crop phytotoxicity) in test [10]. The “herbicidal effect (index), Velvetleaf” value was 5 (90% or more of herbicidal effect and crop phytotoxicity) in test [7]; 5 (90% or more of herbicidal effect and crop phytotoxicity) in test [11].
Consider `CC(C)n1c(C(F)(F)F)ccc(C(=O)C2=C(O)CCCC2=O)c1=O` [I-4], for which the “herbicidal effect, Scirpus juncoides Roxb.” value in test [1] is 5 (90% or more of herbicidal effect and crop phytotoxicity). For the same compound, the “herbicidal effect, Echinochloa oryzicola Vasing” value in test [2] was 5 (90% or more of herbicidal effect and crop phytotoxicity). Also, the “herbicidal effect, Monochoria vaginalis” value in [3] is 5 (90% or more of herbicidal effect and crop phytotoxicity). In addition, the “herbicidal effect (index), Barnyardgrass” value in test [4] is 5 (90% or more of herbicidal effect and crop phytotoxicity); in test [8], 5 (90% or more of herbicidal effect and crop phytotoxicity). Besides, the “herbicidal effect (index), Green Foxtail” value was 4 (70 to less than 90% of herbicidal effect and crop phytotoxicity) in [5]; 3 (50 to less than 70% of herbicidal effect and crop phytotoxicity) in test [9]. In addition, the “herbicidal effect (index), Slender Amaranth” value in [6] was 5 (90% or more of herbicidal effect and crop phytotoxicity); in test [10] it was 5 (90% or more of herbicidal effect and crop phytotoxicity). Also, the “herbicidal effect (index), Velvetleaf” value was 5 (90% or more of herbicidal effect and crop phytotoxicity) in test [7]; 5 (90% or more of herbicidal effect and crop phytotoxicity) in [11].
Take `CCCCn1c(C(F)(F)F)ccc(C(=O)C2=C(O)CCCC2=O)c1=O` [I-5]: in test [1], the “herbicidal effect, Scirpus juncoides Roxb.” value was 5 (90% or more of herbicidal effect and crop phytotoxicity). Besides, in test [2], the “herbicidal effect, Echinochloa oryzicola Vasing” value is 5 (90% or more of herbicidal effect and crop phytotoxicity). Also, the “herbicidal effect, Monochoria vaginalis” value in test [3] is 5 (90% or more of herbicidal effect and crop phytotoxicity). Also, the “herbicidal effect (index), Barnyardgrass” value was 5 (90% or more of herbicidal effect and crop phytotoxicity) in test [4]; 5 (90% or more of herbicidal effect and crop phytotoxicity) in [8]. In addition, the “herbicidal effect (index), Green Foxtail” value was 5 (90% or more of herbicidal effect and crop phytotoxicity) in [5]; 5 (90% or more of herbicidal effect and crop phytotoxicity) in test [9]. Further, the “herbicidal effect (index), Slender Amaranth” value in test [6] is 5 (90% or more of herbicidal effect and crop phytotoxicity); in test [10], 5 (90% or more of herbicidal effect and crop phytotoxicity). Further, the “herbicidal effect (index), Velvetleaf” value is 5 (90% or more of herbicidal effect and crop phytotoxicity) in test [7]; 5 (90% or more of herbicidal effect and crop phytotoxicity) in test [11].
On to `CC(C)Cn1c(C(F)(F)F)ccc(C(=O)C2=C(O)CCCC2=O)c1=O` [I-6], for which the “herbicidal effect, Scirpus juncoides Roxb.” value in test [1] was 5 (90% or more of herbicidal effect and crop phytotoxicity). Besides, the “herbicidal effect, Echinochloa oryzicola Vasing” value in test [2] was 5 (90% or more of herbicidal effect and crop phytotoxicity). For the same compound, the “herbicidal effect, Monochoria vaginalis” value in [3] was 5 (90% or more of herbicidal effect and crop phytotoxicity). Besides, the “herbicidal effect (index), Barnyardgrass” value in test [4] is 5 (90% or more of herbicidal effect and crop phytotoxicity); in test [8], 5 (90% or more of herbicidal effect and crop phytotoxicity). Moreover, the “herbicidal effect (index), Green Foxtail” value in [5] is 5 (90% or more of herbicidal effect and crop phytotoxicity); in test [9], 5 (90% or more of herbicidal effect and crop phytotoxicity). The “herbicidal effect (index), Slender Amaranth” value in test [6] is 5 (90% or more of herbicidal effect and crop phytotoxicity); in [10], 5 (90% or more of herbicidal effect and crop phytotoxicity). Besides, the “herbicidal effect (index), Velvetleaf” value in test [7] is 5 (90% or more of herbicidal effect and crop phytotoxicity); in test [11] it was 5 (90% or more of herbicidal effect and crop phytotoxicity).
As for `CCC(C)n1c(C(F)(F)F)ccc(C(=O)C2=C(O)CCCC2=O)c1=O` (centres unmarked) [I-7], the “herbicidal effect, Scirpus juncoides Roxb.” value in [1] was 5 (90% or more of herbicidal effect and crop phytotoxicity). For the same compound, in [2], the “herbicidal effect, Echinochloa oryzicola Vasing” value is 5 (90% or more of herbicidal effect and crop phytotoxicity). In addition, in [3], the “herbicidal effect, Monochoria vaginalis” value was 5 (90% or more of herbicidal effect and crop phytotoxicity). Further, the “herbicidal effect (index), Barnyardgrass” value in [4] was 5 (90% or more of herbicidal effect and crop phytotoxicity); in test [8], 5 (90% or more of herbicidal effect and crop phytotoxicity). Further, the “herbicidal effect (index), Green Foxtail” value is 5 (90% or more of herbicidal effect and crop phytotoxicity) in test [5]; 5 (90% or more of herbicidal effect and crop phytotoxicity) in test [9]. Further, the “herbicidal effect (index), Slender Amaranth” value is 5 (90% or more of herbicidal effect and crop phytotoxicity) in test [6]; 5 (90% or more of herbicidal effect and crop phytotoxicity) in test [10]. Further, the “herbicidal effect (index), Velvetleaf” value was 5 (90% or more of herbicidal effect and crop phytotoxicity) in test [7]; 5 (90% or more of herbicidal effect and crop phytotoxicity) in test [11].
Take `CCCCCCn1c(C(F)(F)F)ccc(C(=O)C2=C(O)CCCC2=O)c1=O` [I-9]: the “herbicidal effect, Scirpus juncoides Roxb.” value in [1] was 5 (90% or more of herbicidal effect and crop phytotoxicity). Moreover, in test [2], the “herbicidal effect, Echinochloa oryzicola Vasing” value was 5 (90% or more of herbicidal effect and crop phytotoxicity). In [3], the “herbicidal effect, Monochoria vaginalis” value is 5 (90% or more of herbicidal effect and crop phytotoxicity). Moreover, the “herbicidal effect (index), Barnyardgrass” value was 4 (70 to less than 90% of herbicidal effect and crop phytotoxicity) in test [4]; 5 (90% or more of herbicidal effect and crop phytotoxicity) in [8]. Moreover, the “herbicidal effect (index), Green Foxtail” value in [5] is 4 (70 to less than 90% of herbicidal effect and crop phytotoxicity); in [9], 4 (70 to less than 90% of herbicidal effect and crop phytotoxicity). Moreover, the “herbicidal effect (index), Slender Amaranth” value is 5 (90% or more of herbicidal effect and crop phytotoxicity) in [6]; 5 (90% or more of herbicidal effect and crop phytotoxicity) in test [10]. Also, the “herbicidal effect (index), Velvetleaf” value in [7] is 5 (90% or more of herbicidal effect and crop phytotoxicity); in [11], 5 (90% or more of herbicidal effect and crop phytotoxicity).
